Assay results as given in PubChem BioAssay (NCI).
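Protocol summary: plate cells (96-well), add compound at 5 concentrations, incubate 48 h, interpolate endpoints linearly. TGI denotes the concentration required for complete inhibition of growth.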

Assays:
Assay in all cases: inhibition of tumour cell growth, NCI panel, 48 h
KM12 colon = system: KM12 colon
SK-MEL-28 melanoma = system: SK-MEL-28 melanoma
UO-31 renal = system: UO-31 renal
LXFL 529 NSCLC = system: LXFL 529 NSCLC
OVCAR-3 ovarian = system: OVCAR-3 ovarian
HOP-92 NSCLC = system: HOP-92 NSCLC
SK-MEL-2 melanoma = system: SK-MEL-2 melanoma
A498 renal = system: A498 renal
HOP-62 NSCLC = system: HOP-62 NSCLC
OVCAR-5 ovarian = system: OVCAR-5 ovarian
SNB-19 CNS = system: SNB-19 CNS
SN12C renal = system: SN12C renal
COLO 205 colon = system: COLO 205 colon
SNB-75 CNS = system: SNB-75 CNS
HCT-116 colon = system: HCT-116 colon
OVCAR-8 ovarian = system: OVCAR-8 ovarian
HL-60(TB) leukemia = system: HL-60(TB) leukemia
KM20L2 colon = system: KM20L2 colon
SF-268 CNS = system: SF-268 CNS
DMS 114 small cell lung = system: DMS 114 small cell lung
HCC-2998 colon = system: HCC-2998 colon
NCI-H23 lung = system: NCI-H23 lung
UACC-62 melanoma = system: UACC-62 melanoma
CCRF-CEM leukemia = system: CCRF-CEM leukemia
DLD-1 colon = system: DLD-1 colon
SF-539 CNS = system: SF-539 CNS
HOP-18 NSCLC = system: HOP-18 NSCLC
M19-MEL melanoma = system: M19-MEL melanoma
SK-MEL-5 melanoma = system: SK-MEL-5 melanoma
TK-10 renal = system: TK-10 renal
NCI-H460 lung = system: NCI-H460 lung
XF 498 CNS = system: XF 498 CNS
SNB-78 CNS = system: SNB-78 CNS
OVCAR-4 ovarian = system: OVCAR-4 ovarian
CAKI-1 renal = system: CAKI-1 renal
EKVX NSCLC = system: EKVX NSCLC
SK-OV-3 ovarian = system: SK-OV-3 ovarian
M14 melanoma = system: M14 melanoma
RXF 393 renal = system: RXF 393 renal
U251 CNS = system: U251 CNS
IGROV1 ovarian = system: IGROV1 ovarian
K-562 leukemia = system: K-562 leukemia
SW-620 colon = system: SW-620 colon
SF-295 CNS = system: SF-295 CNS
NCI-H522 lung = system: NCI-H522 lung
ACHN renal = system: ACHN renal
A549 NSCLC = system: A549 NSCLC
UACC-257 melanoma = system: UACC-257 melanoma
MOLT-4 leukemia = system: MOLT-4 leukemia
DMS 273 small cell lung = system: DMS 273 small cell lung
NCI-H226 lung = system: NCI-H226 lung
HCT-15 colon = system: HCT-15 colon
LOX IMVI melanoma = system: LOX IMVI melanoma
HT29 colon = system: HT29 colon
786-0 renal = system: 786-0 renal
MALME-3M melanoma = system: MALME-3M melanoma
RPMI-8226 leukemia = system: RPMI-8226 leukemia

Q: What does the source list for `CC1(O)C(C)(O)C(C)(O)C1(C)O` (stereo not given)?
A: TGI (KM12 colon): > 100 µM; TGI (SK-MEL-28 melanoma): > 100 µM; TGI (UO-31 renal): > 100 µM; TGI (LXFL 529 NSCLC): > 100 µM; TGI (OVCAR-3 ovarian): > 100 µM; TGI (HOP-92 NSCLC): > 100 µM; TGI (SK-MEL-2 melanoma): > 100 µM; TGI (A498 renal): > 100 µM; TGI (HOP-62 NSCLC): > 100 µM; TGI (OVCAR-5 ovarian): > 100 µM; TGI (SNB-19 CNS): > 100 µM; TGI (SN12C renal): > 100 µM; TGI (COLO 205 colon): > 100 µM; TGI (SNB-75 CNS): > 100 µM; TGI (HCT-116 colon): > 100 µM; TGI (OVCAR-8 ovarian): > 100 µM; TGI (HL-60(TB) leukemia): > 100 µM; TGI (KM20L2 colon): > 100 µM; TGI (SF-268 CNS): > 100 µM; TGI (DMS 114 small cell lung): > 100 µM; TGI (HCC-2998 colon): > 100 µM; TGI (NCI-H23 lung): > 100 µM; TGI (UACC-62 melanoma): > 100 µM; TGI (CCRF-CEM leukemia): > 100 µM; TGI (DLD-1 colon): > 100 µM; TGI (SF-539 CNS): > 100 µM; TGI (HOP-18 NSCLC): > 100 µM; TGI (M19-MEL melanoma): > 100 µM; TGI (SK-MEL-5 melanoma): > 100 µM; TGI (TK-10 renal): > 100 µM; TGI (NCI-H460 lung): > 100 µM; TGI (XF 498 CNS): > 100 µM; TGI (SNB-78 CNS): > 100 µM; TGI (OVCAR-4 ovarian): > 100 µM; TGI (CAKI-1 renal): > 100 µM; TGI (EKVX NSCLC): > 100 µM; TGI (SK-OV-3 ovarian): > 100 µM; TGI (M14 melanoma): > 100 µM; TGI (RXF 393 renal): > 100 µM; TGI (U251 CNS): > 100 µM; TGI (IGROV1 ovarian): > 100 µM; TGI (K-562 leukemia): > 100 µM; TGI (SW-620 colon): > 100 µM; TGI (SF-295 CNS): > 100 µM; TGI (NCI-H522 lung): > 100 µM; TGI (ACHN renal): > 100 µM; TGI (A549 NSCLC): > 100 µM; TGI (UACC-257 melanoma): > 100 µM; TGI (MOLT-4 leukemia): > 100 µM; TGI (DMS 273 small cell lung): > 100 µM; TGI (NCI-H226 lung): > 100 µM; TGI (HCT-15 colon): > 100 µM; TGI (LOX IMVI melanoma): > 100 µM; TGI (HT29 colon): > 100 µM; TGI (786-0 renal): > 100 µM; TGI (MALME-3M melanoma): > 100 µM

Q: Which results are given for `Cn1cc(NC(=O)c2cc(NC(=O)CCCCCCCCCC(=O)Nc3cc(C(=O)Nc4cc(C(=O)NCCC(=N)N)n(C)c4)n(C)c3)cn2C)cc1C(=O)NCCC(=N)N`?
A: TGI (KM12 colon): 31.7 µM; TGI (SK-MEL-28 melanoma): 62.2 µM; TGI (UO-31 renal): > 100 µM; TGI (LXFL 529 NSCLC): > 100 µM; TGI (OVCAR-3 ovarian): 35.1 µM; TGI (HOP-92 NSCLC): 65.5 µM; TGI (SK-MEL-2 melanoma): > 100 µM; TGI (HOP-62 NSCLC): 81.3 µM; TGI (OVCAR-5 ovarian): 66.4 µM; TGI (SNB-19 CNS): > 100 µM; TGI (RPMI-8226 leukemia): 54.9 µM; TGI (SN12C renal): > 100 µM; TGI (COLO 205 colon): > 100 µM; TGI (SNB-75 CNS): 55.4 µM; TGI (HCT-116 colon): > 100 µM; TGI (OVCAR-8 ovarian): 83.1 µM; TGI (KM20L2 colon): > 100 µM; TGI (SF-268 CNS): 89.3 µM; TGI (DMS 114 small cell lung): > 100 µM; TGI (NCI-H23 lung): > 100 µM; TGI (UACC-62 melanoma): > 100 µM; TGI (CCRF-CEM leukemia): 69.2 µM; TGI (DLD-1 colon): > 100 µM; TGI (SF-539 CNS): > 100 µM; TGI (HOP-18 NSCLC): 96.1 µM; TGI (M19-MEL melanoma): > 100 µM; TGI (SK-MEL-5 melanoma): > 100 µM; TGI (TK-10 renal): 85.9 µM; TGI (NCI-H460 lung): > 100 µM; TGI (XF 498 CNS): 98.9 µM; TGI (SNB-78 CNS): > 100 µM; TGI (OVCAR-4 ovarian): > 100 µM; TGI (CAKI-1 renal): > 100 µM; TGI (EKVX NSCLC): 83.1 µM; TGI (SK-OV-3 ovarian): > 100 µM; TGI (M14 melanoma): 70.1 µM; TGI (RXF 393 renal): > 100 µM; TGI (U251 CNS): > 100 µM; TGI (IGROV1 ovarian): > 100 µM; TGI (K-562 leukemia): > 100 µM; TGI (SW-620 colon): > 100 µM; TGI (SF-295 CNS): 75 µM; TGI (NCI-H522 lung): > 100 µM; TGI (ACHN renal): 73.3 µM; TGI (A549 NSCLC): 57.1 µM; TGI (UACC-257 melanoma): > 100 µM; TGI (MOLT-4 leukemia): 82.1 µM; TGI (DMS 273 small cell lung): > 100 µM; TGI (NCI-H226 lung): > 100 µM; TGI (HCT-15 colon): > 100 µM; TGI (LOX IMVI melanoma): 83.5 µM; TGI (HT29 colon): 46.2 µM; TGI (786-0 renal): 93.3 µM; TGI (MALME-3M melanoma): 26.7 µM
